This data set is described as follows: Stability of progesterone solutions (isocratic HPLC-UV). The data set is classed as physicochemical. An excerpt:
For all stability testing, the method of […], et al. was used with minor modifications ([…], et al. (1999) Journal of Pharmaceutical & Biomedical Analysis, 19(5):803-8). The method was originally validated to assess the stability of medroxyprogesterone acetate and estradiol valerate tablets. It is an isocratic HPLC-UV method utilizing external standardization. A 5 micron, 4.6×250mm BDS-Hypersil C-18 column (Keystone Scientific) was used and the analyses were completed on an Agilent 100 model HPLC system with photodiode array detector. The mobile phase consisted of 40% 0.07M ammonium acetate buffer, pH 7.2 and 60% acetonitrile. Detection was at […]. […] Reproducibility as assessed by 10 injections of the same preparation on multiple different days was always less that 10%. […] A five point standard curve was run with each analysis.

For `CC(=O)[C@H]1CC[C@H]2[C@@H]3CCC4=CC(=O)CC[C@]4(C)[C@H]3CC[C@]12C` [progesterone, pregn-4-ene-3,20-dione], the stability of solution was not below 24 h (Intralipid solutions containing progesterone in 95% ethyl alcohol) and “up to 2 years” (solution of progesterone in 95% ethyl alcohol, room temperature).

For the origin of these results see patent US20090325920A1, “METHODS FOR THE TREATMENT OF A TRAUMATIC CENTRAL NERVOUS SYSTEM INJURY” (priority 2005, published 2009).
